From publication PMC6199744, “Development of Chemical Proteomics for the Folateome and Analysis of the Kinetoplastid Folateome” (ACS Infectious Diseases, 2018)
Read-outs that look alike come from different tables or passages of the source.

Key:
Type in all cases: binding
[1] = biological target: T1, HeLa cell extract proteins (Homo sapiens, UniProt O15162)
T1 construct: endogenous in cells; host or cells: HeLa cell extract
T1 sequence (O15162 1-318): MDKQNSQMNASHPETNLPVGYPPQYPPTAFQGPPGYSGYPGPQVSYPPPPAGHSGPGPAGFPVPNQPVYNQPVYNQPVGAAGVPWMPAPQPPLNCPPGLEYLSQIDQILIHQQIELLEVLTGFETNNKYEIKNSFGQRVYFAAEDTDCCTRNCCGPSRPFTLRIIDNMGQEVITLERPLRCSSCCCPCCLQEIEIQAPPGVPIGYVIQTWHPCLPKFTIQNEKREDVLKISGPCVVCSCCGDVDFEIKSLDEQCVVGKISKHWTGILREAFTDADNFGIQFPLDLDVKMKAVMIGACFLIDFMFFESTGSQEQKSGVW

[2] = biological target: T2, HeLa cell extract proteins (Homo sapiens, UniProt O75521)
T2 construct: endogenous in cells; host or cells: HeLa cell extract
T2 sequence (O75521 39-394): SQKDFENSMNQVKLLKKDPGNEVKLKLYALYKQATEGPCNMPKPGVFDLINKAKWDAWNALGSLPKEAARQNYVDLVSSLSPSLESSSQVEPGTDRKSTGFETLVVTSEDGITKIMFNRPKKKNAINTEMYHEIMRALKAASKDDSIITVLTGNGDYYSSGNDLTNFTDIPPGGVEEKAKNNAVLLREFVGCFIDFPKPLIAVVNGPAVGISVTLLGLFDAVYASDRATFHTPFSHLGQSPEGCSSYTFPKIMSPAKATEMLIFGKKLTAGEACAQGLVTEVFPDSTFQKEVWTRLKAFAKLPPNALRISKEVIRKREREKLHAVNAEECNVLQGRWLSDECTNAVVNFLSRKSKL

[3] = biological target: T3, HeLa cell extract proteins (Homo sapiens, UniProt P09496)
T3 construct: endogenous in cells; host or cells: HeLa cell extract
T3 sequence (P09496 1-248): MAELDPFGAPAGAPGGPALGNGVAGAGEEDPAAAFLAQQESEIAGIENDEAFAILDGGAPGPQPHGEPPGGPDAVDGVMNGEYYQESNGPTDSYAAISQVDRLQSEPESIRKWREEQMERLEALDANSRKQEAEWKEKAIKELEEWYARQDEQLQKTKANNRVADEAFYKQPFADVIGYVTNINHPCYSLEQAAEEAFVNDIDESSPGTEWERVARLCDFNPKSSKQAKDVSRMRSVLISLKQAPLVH

[4] = biological target: T4, HeLa cell extract proteins (Homo sapiens, UniProt P10599)
T4 construct: endogenous in cells; host or cells: HeLa cell extract
T4 sequence (P10599 1-105): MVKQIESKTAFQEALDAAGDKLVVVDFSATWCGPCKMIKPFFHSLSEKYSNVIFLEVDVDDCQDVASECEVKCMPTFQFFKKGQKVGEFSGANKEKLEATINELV

[5] = biological target: T5, HeLa cell extract proteins (Homo sapiens, UniProt P47897)
T5 construct: endogenous in cells; host or cells: HeLa cell extract
T5 sequence (P47897 1-775): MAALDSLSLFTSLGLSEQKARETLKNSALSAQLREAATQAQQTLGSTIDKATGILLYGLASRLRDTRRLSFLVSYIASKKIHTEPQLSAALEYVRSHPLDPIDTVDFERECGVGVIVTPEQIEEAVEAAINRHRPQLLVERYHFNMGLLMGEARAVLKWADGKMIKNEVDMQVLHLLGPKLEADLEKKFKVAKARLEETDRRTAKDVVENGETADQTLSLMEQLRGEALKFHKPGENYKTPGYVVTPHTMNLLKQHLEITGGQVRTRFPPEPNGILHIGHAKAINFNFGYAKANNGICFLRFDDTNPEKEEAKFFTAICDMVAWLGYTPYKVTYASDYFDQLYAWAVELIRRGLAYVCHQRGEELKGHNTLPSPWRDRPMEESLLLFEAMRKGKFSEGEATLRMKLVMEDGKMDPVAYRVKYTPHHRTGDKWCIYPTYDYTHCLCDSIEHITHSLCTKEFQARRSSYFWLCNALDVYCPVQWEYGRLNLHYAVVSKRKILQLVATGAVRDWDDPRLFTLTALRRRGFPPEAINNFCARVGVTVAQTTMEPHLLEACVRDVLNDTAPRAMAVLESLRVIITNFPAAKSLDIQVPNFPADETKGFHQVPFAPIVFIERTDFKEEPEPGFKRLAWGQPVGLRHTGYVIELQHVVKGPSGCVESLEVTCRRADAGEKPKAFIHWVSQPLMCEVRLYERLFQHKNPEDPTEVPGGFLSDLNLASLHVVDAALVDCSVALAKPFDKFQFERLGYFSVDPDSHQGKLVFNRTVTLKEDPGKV

[6] = biological target: T6, HeLa cell extract proteins (Homo sapiens, UniProt Q15046)
T6 construct: endogenous in cells; host or cells: HeLa cell extract

[7] = biological target: T7, HeLa cell extract proteins (Homo sapiens, UniProt Q15392)
T7 construct: endogenous in cells; host or cells: HeLa cell extract
T7 sequence (Q15392 23-516): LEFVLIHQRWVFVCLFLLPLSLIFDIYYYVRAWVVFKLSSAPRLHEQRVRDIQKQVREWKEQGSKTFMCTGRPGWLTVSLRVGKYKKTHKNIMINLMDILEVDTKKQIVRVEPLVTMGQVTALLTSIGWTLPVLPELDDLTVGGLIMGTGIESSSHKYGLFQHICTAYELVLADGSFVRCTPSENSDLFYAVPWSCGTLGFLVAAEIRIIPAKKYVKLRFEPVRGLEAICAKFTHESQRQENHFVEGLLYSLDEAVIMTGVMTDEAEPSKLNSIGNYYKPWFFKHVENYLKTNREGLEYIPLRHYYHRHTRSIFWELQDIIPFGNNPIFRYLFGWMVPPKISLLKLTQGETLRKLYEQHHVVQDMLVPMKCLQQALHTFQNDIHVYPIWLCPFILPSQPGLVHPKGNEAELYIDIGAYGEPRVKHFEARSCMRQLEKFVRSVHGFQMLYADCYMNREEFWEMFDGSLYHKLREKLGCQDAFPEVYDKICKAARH

[8] = biological target: T8, HeLa cell extract proteins (Homo sapiens, UniProt Q99720)
T8 construct: endogenous in cells; host or cells: HeLa cell extract

[9] = biological target: T9, HeLa cell extract proteins (Homo sapiens, UniProt Q9H974)
T9 construct: endogenous in cells; host or cells: HeLa cell extract

[10] = HeLa, protein DHCR24 (24-DEHYDROC[…] PRECURSOR)

T8 sequence (Q99720 whole entry): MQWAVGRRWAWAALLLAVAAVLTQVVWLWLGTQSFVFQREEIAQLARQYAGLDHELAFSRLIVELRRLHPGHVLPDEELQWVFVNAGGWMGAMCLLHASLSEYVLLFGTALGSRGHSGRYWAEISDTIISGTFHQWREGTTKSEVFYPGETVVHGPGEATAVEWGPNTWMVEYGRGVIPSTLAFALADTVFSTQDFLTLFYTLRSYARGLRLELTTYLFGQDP
T6 sequence (Q15046 whole entry): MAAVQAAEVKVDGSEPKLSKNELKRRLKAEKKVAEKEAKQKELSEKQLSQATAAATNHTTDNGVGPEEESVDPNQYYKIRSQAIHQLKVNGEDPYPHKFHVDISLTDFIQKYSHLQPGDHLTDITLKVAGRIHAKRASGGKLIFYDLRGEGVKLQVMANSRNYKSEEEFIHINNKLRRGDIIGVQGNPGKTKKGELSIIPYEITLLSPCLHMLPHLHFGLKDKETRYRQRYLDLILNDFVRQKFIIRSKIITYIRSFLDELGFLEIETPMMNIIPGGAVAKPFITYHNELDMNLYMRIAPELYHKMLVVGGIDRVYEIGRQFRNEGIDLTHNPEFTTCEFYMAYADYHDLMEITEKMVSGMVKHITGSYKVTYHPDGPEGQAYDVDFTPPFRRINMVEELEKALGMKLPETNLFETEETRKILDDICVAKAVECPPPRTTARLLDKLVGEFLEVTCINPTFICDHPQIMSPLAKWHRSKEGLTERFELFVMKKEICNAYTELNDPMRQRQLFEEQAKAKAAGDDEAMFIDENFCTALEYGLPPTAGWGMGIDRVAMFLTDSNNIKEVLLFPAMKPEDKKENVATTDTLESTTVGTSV
T9 sequence (Q9H974 whole entry): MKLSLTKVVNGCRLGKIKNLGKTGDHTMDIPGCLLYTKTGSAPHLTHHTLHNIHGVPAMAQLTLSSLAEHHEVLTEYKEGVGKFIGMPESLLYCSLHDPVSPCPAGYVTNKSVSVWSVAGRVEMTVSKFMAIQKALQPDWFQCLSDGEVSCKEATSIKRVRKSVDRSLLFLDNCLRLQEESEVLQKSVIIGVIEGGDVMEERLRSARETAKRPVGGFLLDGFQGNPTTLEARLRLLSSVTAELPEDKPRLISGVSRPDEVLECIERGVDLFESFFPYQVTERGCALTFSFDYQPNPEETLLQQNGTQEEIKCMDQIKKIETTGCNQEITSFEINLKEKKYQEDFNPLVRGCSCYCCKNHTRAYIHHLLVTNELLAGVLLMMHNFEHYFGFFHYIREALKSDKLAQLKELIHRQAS

Compound	fold changes relative to vehicle control ([1]; HeLa, protein PLSCR1)	fold changes relative to vehicle control ([2]; protein PECI, HeLa)	fold changes relative to vehicle control ([3]; HeLa, protein CLTA)	fold changes relative to vehicle control ([4]; captured protein TXN, HeLa)	fold changes relative to vehicle control ([5]; HeLa, protein QARS)	fold changes relative to vehicle control ([6]; protein KARS, HeLa)	fold changes relative to vehicle control ([7]; protein DHCR24, HeLa)	fold changes relative to vehicle control ([8]; HeLa, protein SIGMAR1)	fold changes relative to vehicle control ([9]; HeLa, protein QTRTD1)	fold changes relative to vehicle control ([1]; HeLa, captured protein PLSCR1)	fold changes relative to vehicle control ([2]; HeLa, captured protein PECI)	fold changes relative to vehicle control ([3]; HeLa, captured protein CLTA)	fold changes relative to vehicle control ([4]; HeLa, protein TXN)	fold changes relative to vehicle control ([5]; HeLa, captured protein QARS)	fold changes relative to vehicle control ([6]; HeLa, captured protein KARS)	fold changes relative to vehicle control ([9]; protein QTRTD1, HeLa)	further results
Nc1nc2cccc(-c3ccccc3)c2n1Cc1ccc(Cl)c(Cl)c1 [compound 3]	0.98	1.05	1.09	1.12	1.01	1.13	1.02	1.1	0.99	–	–	–	–	–	–	–	–
Nc1nc2[nH]cc(CCc3ccc(C(=O)N[C@@H](CCC(=O)O)C(=O)O)cc3)c2c(=O)[nH]1 [PTX, pemetrexed]	–	–	–	–	–	–	–	–	–	–	–	–	–	–	–	–	fold changes relative to vehicle control [1]: 0.96; fold changes relative to vehicle control [2]: 1.01; fold changes relative to vehicle control [3]: 1.55; fold changes relative to vehicle control [4]: 1.13; fold changes relative to vehicle control [5]: 0.9; fold changes relative to vehicle control [6]: 0.96; fold changes relative to vehicle control [7]: 1.05; fold changes relative to vehicle control [8]: 0.99; fold changes relative to vehicle control [9]: 0.86
Nc1nc2c(c(=O)[nH]1)N(C=O)C(CNc1ccc(C(=O)N[C@@H](CCC(=O)O)C(=O)O)cc1)CN2 (stereo partly drawn) [LEU, leucovorin]	–	–	–	–	–	–	–	1.04	–	1.01	1.06	1.19	1.05	0.97	0.91	0.93	fold changes relative to vehicle control [7, 10]: 1.13
CCCCCCOc1cccc(Cc2cnc(N)nc2N)c1 [compound 2]	0.86	0.82	0.99	1.18	1.16	1.12	0.83	0.99	0.93	–	–	–	–	–	–	–	–
NCCOCCOCC(=O)Nc1nc2ncc(CNc3ccc(C(=O)NC(CCC(=O)O)C(=O)O)cc3)nc2c(=O)[nH]1 (stereo not drawn) [compound 6]	–	–	–	–	–	–	–	0.96	–	0.96	0.96	1.48	1.28	0.95	1.04	0.33	fold changes relative to vehicle control ([7]; HeLa, protein DHCR24 (24-DEHYDROCHOLESTEROL REDUCTASE PRECURSOR)): 0.88
CCCCCCOc1ccc(Cc2cnc(N)nc2N)cc1 [compound 1]	1.02	0.99	0.68	0.95	0.99	0.74	1.03	0.99	0.46	–	–	–	–	–	–	–	–
NCCCNc1ccc(C(=O)NC(CCC(=O)O)C(=O)O)cc1 (stereo not drawn) [compound 7]	–	–	–	–	–	–	–	1.05	–	1.07	1.03	1.4	1.33	0.92	1.07	0.99	fold changes relative to vehicle control [7, 10]: 1.03
